Assay results: US6214856A, “Indolecarboxamides, pharmaceutical compositions and methods of inhibiting calpain” (SmithKline Beecham Corporation, priority 1999, dated 2001)
pIC50: −log10 of the molar value.

Tested on: calpain
Assay: inhibition of calpain in vitro (rate of hydrolysis of synthetic fluorogenic substrates)
Format: biochemical
Settings: percent decrease in rate of substrate hydrolysis
Protocol: The assays were performed using synthetic fluorogenic substrates. Inhibition of enzyme activity was calculated on the percent decrease in the rate of substrate hydrolysis in the presence of inhibitor relative to the rate in its absence. IC50s (nM) were calculated.

pIC50 | Structure (SMILES)
6.64 | O=C[C@H](Cc1ccccc1)NC(=O)c1cc2cc(Br)ccc2[nH]1 [Example 4, (S)-5-bromo-N-(1-formyl-2-phenylethyl)-2-indolecarboxamide]
6.22 | CS(=O)(=O)n1c(C(=O)N[C@H](C=O)Cc2ccccc2)cc2ccccc21 [Example 5, (S)-N-(1-formyl-2-phenylethyl)-1-(methylsulfonyl)-2-indolecarboxamide]
6.30 | O=C[C@H](Cc1ccccc1)NC(=O)c1cc2ccccc2n1Cc1ccccc1 [Example 6, (S)-N-(1-formyl-2-phenylethyl)-1-(phenylmethyl)-2-indolecarboxamide]
6.22 | COc1ccc2cc(C(=O)N[C@H](C=O)Cc3ccccc3)[nH]c2c1 [Example 7, (S)-N-(1-formyl-2-phenylethyl)-6-methoxy-2-indolecarboxamide]

More lines, now with the values behind:

Structure (SMILES) | pIC50
Cn1c(C(=O)N[C@H](C=O)Cc2ccccc2)cc2ccccc21 [Example 1, (S)-N-(1-formyl-2-phenylethyl)-1-methyl-2-indolecarboxamide] | 6.30
O=C[C@H](Cc1ccccc1)NC(=O)c1cc2ccccc2[nH]1 [Example 2, (S)-N-(1-formyl-2-phenylethyl)-2-indolecarboxamide] | 6.22
COc1cc2cc(C(=O)N[C@H](C=O)Cc3ccccc3)[nH]c2cc1OCc1ccccc1 [Example 3, (S)-N-(1-formyl-2-phenylethyl)-5-methoxy-6-(phenylmethoxy)-2-indolecarboxamide] | 6.87
Cc1c(C(=O)N[C@H](C=O)Cc2ccccc2)n(Cc2ccccc2)c2ccccc12 [Example 8, (S)-N-(1-formyl-2-phenylethyl)-3-methyl-1-(phenylmethyl)-2-indolecarboxamide] | 7.52
